≈ marks a conversion by molar mass, not a printed value.
Experiments:
[1] = tested on: M. marinum-tdTomato yolk-infected zebrafish embryos; details: in vivo
M. tuberculosis H37Rv = test: microbe, parasite or virus in culture; type: cell-based; details: Mycobacterium tuberculosis, read-out: MIC90 Mtb in vitro; for IC90: 144 h
[2] = tested on: Mtb-infected THP-1 macrophages; test: microbe, parasite or virus in culture; type: cell-based, Mycobacterium tuberculosis; details: for MIC50 / IC50: Mycobacterium tuberculosis, read-out: MIC50 Mtb ex vivo; for IC50: THP-1, 96 h
M. marinum M^USA = test: microbe, parasite or virus in culture; type: cell-based; details: Mycobacterium marinum, read-out: MIC90 Mmar in vitro

**Q.** `CC(C)=CCC/C(C)=C/CNCCNC1C2CC3CC(C2)CC1C3` (stereo not drawn) [SQ109] was tested. Which “Bacterial load (integrated red fluorescence) in infected embryos vs DMSO” value (“Bacterial load … vs DMSO” below) [1] did it give?
**A.** Its value is “significant reduction of the bacterial signal”.

**Q.** `CC12CC3CC(C)(C1)CC(C(=O)Nc1nc4ccccc4s1)(C3)C2` [TBA8] was tested. Which MIC90 (M. tuberculosis H37Rv) did it give?
**A.** The MIC90 was 15.8 ± 7.5 µM (≈ 5.38 µg/mL).

**Q.** And the MIC50 [2]?
**A.** Its MIC50 is 6.9 ± 8.7 µM (≈ 2.35 µg/mL).

**Q.** How did the MIC90 (M. tuberculosis H37Rv) turn out when `COc1ccc(Cc2nn3c(-c4ccccc4)nnc3s2)cc1` [TBA29] was run?
**A.** The MIC90 was 3.6 ± 0.9 µM (≈ 1.16 µg/mL).

**Q.** What about the MIC50 [2] of the same molecule?
**A.** The MIC50 was 6.1 ± 4 µM (≈ 1.97 µg/mL).

**Q.** `CC(C)C(=O)Nc1ccc(C(=O)Oc2ccccc2)c(O)c1` [TBA32] was tested. Which MIC90 (M. tuberculosis H37Rv) did it give?
**A.** Its MIC90 is 2 ± 0.5 µM (≈ 0.599 µg/mL).

**Q.** And the MIC50 [2]?
**A.** The MIC50 was 9.6 ± 16.6 µM (≈ 2.87 µg/mL).

**Q.** `O=C(Nc1ccc(Cl)cc1)NC1CC2CCC1C2` (stereo not drawn) [TBA37] was tested. Which MIC90 (M. tuberculosis H37Rv) did it give?
**A.** The MIC90 was 13.6 ± 4.3 µM (≈ 3.6 µg/mL).

**Q.** And the MIC50 [2]?
**A.** Its MIC50 is 5.5 ± 3.6 µM (≈ 1.46 µg/mL).

**Q.** Which results are given for `Cc1ccc(-c2nnc3sc(Cc4ccccc4)nn23)cc1` [TBA38]?
**A.** MIC90 (M. tuberculosis H37Rv): 9.9 ± 1.9 µM (≈ 3.03 µg/mL); MIC50 [2]: 5.6 ± 3.4 µM (≈ 1.72 µg/mL)

**Q.** `Cc1ccc(NC(=O)C23CC4CC(CC2C4)C3)cc1` [TBA52] was tested. Which IC90 (M. tuberculosis H37Rv) did it give?
**A.** The IC90 was 9.6 ± 5.3 µM.

**Q.** What about the IC50 [2] of the same molecule?
**A.** The IC50 was 4.2 ± 6 µM.

**Q.** With `COc1cccc(OCCNC(=O)c2cc([N+](=O)[O-])cc([N+](=O)[O-])c2)c1` [TBA57] as the molecule, how does the MIC90 (M. tuberculosis H37Rv) read?
**A.** Its MIC90 is 1.7 ± 3.1 µM (≈ 0.614 µg/mL).

**Q.** What about the MIC50 [2] of the same molecule?
**A.** Its MIC50 is 1.6 ± 0.7 µM (≈ 0.578 µg/mL).

**Q.** How did the MIC90 (M. tuberculosis H37Rv) turn out when `O=C(OCC(=O)c1c[nH]c2ccccc12)c1ccc([N+](=O)[O-])s1` [TBA61] was run?
**A.** Its MIC90 is 2.2 ± 0.2 µM (≈ 0.727 µg/mL).

**Q.** And the “Intracellular activity (bacterial viability, macrophage protection)” value [2]?
**A.** Its value is “did not show activity”.

**Q.** What about the MIC50 [2] of the same molecule?
**A.** Its MIC50 is greater than 30 µM.

**Q.** `COc1ccc(CNC(=O)c2c(C)nc3ccccn23)cc1` [TBA117] was tested. Which MIC90 (M. tuberculosis H37Rv) did it give?
**A.** Its MIC90 is 4 ± 1.4 µM (≈ 1.18 µg/mL).

**Q.** And the MIC50 [2]?
**A.** Its MIC50 is 0.4 ± 0.1 µM (≈ 0.118 µg/mL).

**Q.** Which results are given for `Cc1nc2ccccn2c1C(=O)NCc1ccc2c(c1)OCO2` [TBA120]?
**A.** MIC90 (M. tuberculosis H37Rv): 5.9 ± 2.6 µM (≈ 1.83 µg/mL); MIC50 [2]: 0.5 ± 0.2 µM (≈ 0.155 µg/mL)

**Q.** `CC(C)(C)c1ccc(Cn2cnc([N+](=O)[O-])n2)cc1` [TBA139] was tested. Which IC90 (M. tuberculosis H37Rv) did it give?
**A.** The IC90 was 11.8 ± 12.4 µM.

**Q.** And the IC50 [2]?
**A.** Its IC50 is 4.6 ± 7.1 µM.

**Q.** Which results are given for `O=C(Nc1ccc(F)cc1)NC1CCCCCCC1` [TBA145]?
**A.** MIC90 (M. tuberculosis H37Rv): 19 ± 5.7 µM (≈ 5.02 µg/mL); MIC50 [2]: 8 ± 14.2 µM (≈ 2.11 µg/mL)

**Q.** Which results are given for `O=c1c2ccccc2oc2nc3n(c(=O)c12)CCCS3` [TBA161-A, 3,4-dihydro-chromeno[2′,3′:4,5]pyrimido[2,1-b][1,3]thiazine-6,7-dione]?
**A.** MIC90 (M. tuberculosis H37Rv): 3.8 ± 3.1 µM (≈ 1.09 µg/mL); MIC50 [2]: 1.1 ± 0.9 µM (≈ 0.315 µg/mL); MIC90 (M. marinum M^USA): 2.8 ± 1.7 µM (≈ 0.802 µg/mL)

**Q.** With `CCc1cccc2c(C(=O)COC(=O)c3ccc([N+](=O)[O-])s3)c[nH]c12` [TBA172] as the molecule, how does the MIC90 (M. tuberculosis H37Rv) read?
**A.** The MIC90 was 2.4 ± 0.4 µM (≈ 0.86 µg/mL).

**Q.** What about the “Intracellular activity (bacterial viability, macrophage protection)” value [2] of the same molecule?
**A.** The value was “did not show activity”.

**Q.** What about the MIC50 [2] of the same molecule?
**A.** The MIC50 was greater than 30 µM.

**Q.** How did the “Bacterial load … vs DMSO” value [1] turn out when `COc1nc2ccc(Br)cc2cc1[C@@H](c1ccccc1)[C@@](O)(CCN(C)C)c1cccc2ccccc12` [bedaquiline] was run?
**A.** The value was “significant reduction of the bacterial signal”.

**Q.** Which “Bacterial load … vs DMSO” value [1] does the source give for `C[C@]1(COc2ccc(N3CCC(Oc4ccc(OC(F)(F)F)cc4)CC3)cc2)Cn2cc([N+](=O)[O-])nc2O1` [delamanid] here?
**A.** The value was “significant reduction of the bacterial signal”.

**Q.** For `CCc1cc(C(N)=S)ccn1` [ethionamide], which “Bacterial load … vs DMSO” value [1] is on record?
**A.** Its value is “significant reduction of the bacterial signal”.

**Q.** Which “Bacterial load … vs DMSO” value [1] does the source give for `O=c1nc(N2CCN(CC3CCCCC3)CC2)sc2c([N+](=O)[O-])cc(C(F)(F)F)cc12` [macozinone] here?
**A.** Its value is “significant reduction of the bacterial signal”.

**Q.** With `O=[N+]([O-])c1cn2c(n1)OC[C@@H](OCc1ccc(OC(F)(F)F)cc1)C2` [pretonamid] as the molecule, how does the “Bacterial load … vs DMSO” value [1] read?
**A.** Its value is “significant reduction of the bacterial signal”.

**Q.** For `CO[C@H]1/C=C/O[C@@]2(C)Oc3c(C)c(O)c4c(O)c(c(/C=N/N5CCN(C)CC5)c(O)c4c3C2=O)NC(=O)/C(C)=C\C=C\[C@H](C)[C@H](O)[C@@H](C)[C@@H](O)[C@@H](C)[C@H](OC(C)=O)[C@@H]1C` [rifampicin], which “Bacterial load … vs DMSO” value [1] is on record?
**A.** Its value is “significant reduction of the bacterial signal”.

**Q.** How did the “Bacterial load … vs DMSO” value [1] turn out when `CC(=O)NC[C@H]1CN(c2ccc(N3CCSCC3)c(F)c2)C(=O)O1` [sutezolid] was run?
**A.** The value was “significant reduction of the bacterial signal”.

Source: publication PMC8713996, “An anti-tuberculosis compound screen using a zebrafish infection model identifies an aspartyl-tRNA synthetase inhibitor” (Disease Models & Mechanisms, 2021)
